# Legend:
# [1] = Stability of multibiotic agents in Simulated Gastric Fluid (SGF); type: in vitro ADME; details: simulated gastric fluid pH 1.6 with pepsin, 37° C., 1 μM
# Method in brief: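 Compounds were incubated at 1 μM final at 37 °C in simulated gastric fluid containing NaCl, pH 1.6, with FaSSIF powder and 0.1 mg/mL pepsin. Aliquots were taken at T0 and at regular intervals and quenched with acetonitrile. Degradation rates were determined by LC/MS.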
# [2] = Stability of multibiotic agents in Simulated Intestinal Fluid (SIF); type: in vitro ADME; details: simulated intestinal fluid pH 6.7 with pancreatin, 37° C., 1 μM
# Method in brief: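 Compounds at 1 μM final (from 1 mM DMSO stock) incubated at 37 °C with agitation in fresh SIF (FaSSIF plus pancreatin in pH 6.7 phosphate buffer). Aliquots taken at T0 and regular intervals, quenched with 1 volume acetonitrile. Degradation rate determined by LC/MS.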
SMILES,Assay 2 (SGF) (% Remaining @ 4 hours) [1],Assay 3 (SIF) (% @ Remaining 4 hours) [2]
"O=C(/C=C/c1c[nH]c2ccccc12)O[C@H]1CO[C@H]2[C@@H]1OC[C@H]2OC(=O)/C=C/c1c[nH]c2ccccc12 [Example 123, [(3R,3aR,6S,6aR)-6-[(E)-3-(1H-indol-3-yl)prop-2-enoyl]oxy-2,3,3a,5,6,6a-hexahydrofuro[3,2-b]furan-3-yl] (E)-3-(1H-indol-3-yl)prop-2-enoate]",C (>75% of the tested compound remaining),C (>75% of the tested compound remaining)
"CC(C)(COC(=O)/C=C/c1c[nH]c2ccccc12)[C@@H](OC(=O)/C=C/c1c[nH]c2ccccc12)C(=O)NCCC(N)=O [Example 124, [(3R)-4-[(3-amino-3-oxo-propyl)amino]-3-[(E)-3-(1H-indol-3-yl)prop-2-enoyl]oxy-2,2-dimethyl-4-oxo-butyl] (E)-3-(1H-indol-3-yl)prop-2-enoate]",C (>75% of the tested compound remaining),C (>75% of the tested compound remaining)
"CC(C)(COC(=O)/C=C/c1c[nH]c2ccccc12)[C@@H](OC(=O)/C=C/c1c[nH]c2ccccc12)C(=O)NCCCOC(=O)/C=C/c1c[nH]c2ccccc12 [Example 125, 3-[[(2R)-2,4-bis[[(E)-3-(1H-indol-3-yl)prop-2-enoyl]oxy]-3,3-dimethyl-butanoyl]amino]propyl (E)-3-(1H-indol-3-yl)prop-2-enoate]",C (>75% of the tested compound remaining),C (>75% of the tested compound remaining)
"CCCC(=O)NCCCNC(=O)CCC [Example 126, N-[3-(butanoylamino)propyl]butanamide]",C (>75% of the tested compound remaining),C (>75% of the tested compound remaining)
"CCCC(=O)NCCCCN(CCCNC(=O)CCC)C(=O)CCC [Example 127, N-[4-[butanoyl-[3-(butanoylamino)propyl]amino]butyl]butanamide]",C (>75% of the tested compound remaining),C (>75% of the tested compound remaining)
"CCCC(=O)NCCCN(CCCCN(CCCNC(=O)CCC)C(=O)CCC)C(=O)CCC [Example 128, N-[3-[butanoyl-[4-[butanoyl-[3-(butanoylamino)propyl]amino]butyl]amino]propyl]butanamide]",C (>75% of the tested compound remaining),C (>75% of the tested compound remaining)
"CCCC(=O)NCCCN(CCCNC(=O)CCC)C(=O)CCC [Example 129, N-[3-[butanoyl-[3-(butanoylamino)propyl]amino]propyl]butanamide]",C (>75% of the tested compound remaining),C (>75% of the tested compound remaining)
"CCCC(=O)N1CCN(C(=O)CCC)CC1 [Example 130, 1-(4-butanoylpiperazin-1-yl)butan-1-one]",C (>75% of the tested compound remaining),C (>75% of the tested compound remaining)
"CCCC(=O)N(C)CCCN(C)C(=O)CCC [Example 131, N-[3-[butanoyl(methyl)amino]propyl]-N-methyl-butanamide]",C (>75% of the tested compound remaining),C (>75% of the tested compound remaining)
"CCCC(=O)N[C@H]1CC[C@H](NC(=O)CCC)CC1 [Example 132, trans-N-[4-(butanoylamino)cyclohexyl]butanamide]",C (>75% of the tested compound remaining),C (>75% of the tested compound remaining)
"CCCC(=O)NCCC[C@H](NC(=O)CCC)C(=O)O [Example 133, (2S)-2,5-bis(butanoylamino)pentanoic acid]",C (>75% of the tested compound remaining),C (>75% of the tested compound remaining)
"CCCC(=O)/N=C(/NCCCCNC(=O)CCC)NC(=O)CCC [Example 134, N-[4-[[(Z)—N,N′-di(butanoyl)carbamimidoyl]amino]butyl]butanamide]",C (>75% of the tested compound remaining),C (>75% of the tested compound remaining)
"C[C@@H](O)CC(=O)NCCCNC(=O)C[C@@H](C)O [Example 135, (3R)-3-hydroxy-N-[3-[[(3R)-3-hydroxybutanoyl]amino]propyl]butanamide]",C (>75% of the tested compound remaining),C (>75% of the tested compound remaining)
"C[C@@H](O)CC(=O)NCCCN(CCCCN(CCCNC(=O)C[C@@H](C)O)C(=O)C[C@@H](C)O)C(=O)C[C@@H](C)O [Example 136, (3R)-3-hydroxy-N-[3-[[(3R)-3-hydroxybutanoyl]-[4-[[(3R)-3-hydroxybutanoyl]-[3-[[(3R)-3-hydroxybutanoyl]amino]propyl]amino]butyl]amino]propyl]butanamide]",C (>75% of the tested compound remaining),C (>75% of the tested compound remaining)
"C[C@@H](O)CC(=O)NCCCNCCCCN(CCCNC(=O)C[C@@H](C)O)C(=O)C[C@@H](C)O [Example 137, (3R)-3-hydroxy-N-[3-[4-[[(3R)-3-hydroxybutanoyl]-[3-[[(3R)-3-hydroxybutanoyl]amino]propyl]amino]butylamino]propyl]butanamide]",C (>75% of the tested compound remaining),C (>75% of the tested compound remaining)
"CC(=O)OC1OC[C@H](OC(C)=O)[C@H](OC(C)=O)[C@H]1OC(C)=O (stereo partly drawn) [Example 138, [(3S,4S,5R)-4,5,6-triacetoxytetrahydropyran-3-yl] acetate]",C (>75% of the tested compound remaining),C (>75% of the tested compound remaining)
"CCCC(=O)OC1OC[C@H](OC(=O)CCC)[C@H](OC(=O)CCC)[C@H]1OC(=O)CCC (stereo partly drawn) [Example 139, [(3S,4S,5R)-4,5,6-tri(butanoyloxy)tetrahydropyran-3-yl] butanoate]",C (>75% of the tested compound remaining),C (>75% of the tested compound remaining)
"CCCC(=O)O[C@H]1[C@@H](OC(=O)CCC)COC(O)[C@@H]1OC(=O)CCC (stereo partly drawn) [Example 140, [(3S,4S,5R)-4,5-di(butanoyloxy)-6-hydroxy-tetrahydropyran-3-yl] butanoate]",C (>75% of the tested compound remaining),C (>75% of the tested compound remaining)
"CCCC(=O)O[C@H]1[C@@H](OC(=O)CCC)COC(Oc2ccccc2C(=O)O)[C@@H]1OC(=O)CCC (stereo partly drawn) [Example 141, 2-[(3R,4S,5S)-3,4,5-tri(butanoyloxy)tetrahydropyran-2-yl]oxybenzoic acid]",C (>75% of the tested compound remaining),A (<25% of the tested compound remaining)
"Cc1ncc(CO)c(COC(=O)/C=C/c2c[nH]c3ccccc23)c1OC(=O)/C=C/c1c[nH]c2ccccc12 [Example 142, [5-(hydroxymethyl)-3-[(E)-3-(1H-indol-3-yl)prop-2-enoyl]oxy-2-methyl-4-pyridyl]methyl (E)-3-(1H-indol-3-yl)prop-2-enoate]",C (>75% of the tested compound remaining),C (>75% of the tested compound remaining)
"C[C@@H](O)CC(=O)NCCCNCCCNC(=O)C[C@@H](C)O [Example 143, (3R)-3-hydroxy-N-[3-[3-[[(3R)-3-hydroxybutanoyl]amino]propylamino]propyl] butanamide]",C (>75% of the tested compound remaining),C (>75% of the tested compound remaining)
"CCCC(=O)O[C@@H]1[C@H](OC(=O)CCC)COC(O)[C@@H]1OC(=O)CCC (stereo partly drawn) [Example 144, [(3R,4R,5R)-4,5-di(butanoyloxy)-6-hydroxy-tetrahydropyran-3-yl] butanoate]",C (>75% of the tested compound remaining),A (<25% of the tested compound remaining)
"O=C(Cc1c[nH]c2ccccc12)O[C@H]1OC[C@@H](OC(=O)Cc2c[nH]c3ccccc23)[C@@H](OC(=O)Cc2c[nH]c3ccccc23)[C@H]1OC(=O)Cc1c[nH]c2ccccc12 [Example 145, [(3R,4R,5R,6R)-4,5,6-tris[[2-(1H-indol-3-yl)acetyl]oxy]tetrahydropyran-3-yl] 2-(1H-indol-3-yl)acetate]",C (>75% of the tested compound remaining),A (<25% of the tested compound remaining)
"O=C(Cc1c[nH]c2ccccc12)O[C@@H]1OC[C@@H](OC(=O)Cc2c[nH]c3ccccc23)[C@@H](OC(=O)Cc2c[nH]c3ccccc23)[C@H]1OC(=O)Cc1c[nH]c2ccccc12 [Example 146, [(3R,4R,5R,6S)-4,5,6-tris[[2-(1H-indol-3-yl)acetyl]oxy]tetrahydropyran-3-yl] 2-(1H-indol-3-yl)acetate]",C (>75% of the tested compound remaining),A (<25% of the tested compound remaining)
"O=C(Cc1c[nH]c2ccccc12)O[C@H]1[C@@H](OC(=O)Cc2c[nH]c3ccccc23)COC(O)[C@@H]1OC(=O)Cc1c[nH]c2ccccc12 (stereo partly drawn) [Example 147, [(3S,4S,5R)-6-hydroxy-4,5-bis[[2-(1H-indol-3-yl)acetyl]oxy]tetrahydropyran-3-yl] 2-(1H-indol-3-yl)acetate]",C (>75% of the tested compound remaining),B (25-75% of the tested compound remaining)

# Source: patent US20230293458A1, “MULTIBIOTIC AGENTS AND METHODS OF USING THE SAME” (Flagship Pioneering Innovations V, Inc., priority 2017, published 2023)
